From US10793563B2, “GCN2 inhibitors and uses thereof” (Merck Patent GmbH, priority 2018, dated 2020)

What was measured:
GCN2 kinase = GCN2 kinase (Homo sapiens (Human), UniProt Q9P2K8); assay: GCN2 Enzyme Inhibition Assay (Transcreener ADP2 fluorescence polarization); format: biochemical; details: 280 μM ATP, 200 μM (RS)7 peptide, 4 nM GCN2, 25° C.; for Ki: Ki(app)
Summary of the method: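 Transcreener ADP2 fluorescence polarization detection of ADP from 4 nM GCN2 with (RS)7 substrate in 25 mM Tris-HCl pH 7.5, 50 mM NaCl, 10 mM MgCl2, 1 mM DTT. Compound pre-incubated with enzyme 10 min at 25 °C; reaction started by ATP, run 1 h at 25 °C. IC50 and Ki(app) by tight-binding fit.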

[1] = target: intracellular GCN2 (phosphorylation of the GCN2 substrate eIF2α) (Homo sapiens (Human), UniProt Q9P2K8); assay: GCN2 Cellular Inhibition Assay (AlphaScreen SureFire P-eIF2α Ser51, borrelidin-treated U2OS cells); format: cell-based; details: 10 μM borrelidin, 1 h, phosphorylated eIF2α Ser51, read-out: GCN2 Biomarker (IC50)
Sequence of intracellular GCN2 (phosphorylation of the GCN2 substrate eIF2α) (Q9P2K8 whole entry): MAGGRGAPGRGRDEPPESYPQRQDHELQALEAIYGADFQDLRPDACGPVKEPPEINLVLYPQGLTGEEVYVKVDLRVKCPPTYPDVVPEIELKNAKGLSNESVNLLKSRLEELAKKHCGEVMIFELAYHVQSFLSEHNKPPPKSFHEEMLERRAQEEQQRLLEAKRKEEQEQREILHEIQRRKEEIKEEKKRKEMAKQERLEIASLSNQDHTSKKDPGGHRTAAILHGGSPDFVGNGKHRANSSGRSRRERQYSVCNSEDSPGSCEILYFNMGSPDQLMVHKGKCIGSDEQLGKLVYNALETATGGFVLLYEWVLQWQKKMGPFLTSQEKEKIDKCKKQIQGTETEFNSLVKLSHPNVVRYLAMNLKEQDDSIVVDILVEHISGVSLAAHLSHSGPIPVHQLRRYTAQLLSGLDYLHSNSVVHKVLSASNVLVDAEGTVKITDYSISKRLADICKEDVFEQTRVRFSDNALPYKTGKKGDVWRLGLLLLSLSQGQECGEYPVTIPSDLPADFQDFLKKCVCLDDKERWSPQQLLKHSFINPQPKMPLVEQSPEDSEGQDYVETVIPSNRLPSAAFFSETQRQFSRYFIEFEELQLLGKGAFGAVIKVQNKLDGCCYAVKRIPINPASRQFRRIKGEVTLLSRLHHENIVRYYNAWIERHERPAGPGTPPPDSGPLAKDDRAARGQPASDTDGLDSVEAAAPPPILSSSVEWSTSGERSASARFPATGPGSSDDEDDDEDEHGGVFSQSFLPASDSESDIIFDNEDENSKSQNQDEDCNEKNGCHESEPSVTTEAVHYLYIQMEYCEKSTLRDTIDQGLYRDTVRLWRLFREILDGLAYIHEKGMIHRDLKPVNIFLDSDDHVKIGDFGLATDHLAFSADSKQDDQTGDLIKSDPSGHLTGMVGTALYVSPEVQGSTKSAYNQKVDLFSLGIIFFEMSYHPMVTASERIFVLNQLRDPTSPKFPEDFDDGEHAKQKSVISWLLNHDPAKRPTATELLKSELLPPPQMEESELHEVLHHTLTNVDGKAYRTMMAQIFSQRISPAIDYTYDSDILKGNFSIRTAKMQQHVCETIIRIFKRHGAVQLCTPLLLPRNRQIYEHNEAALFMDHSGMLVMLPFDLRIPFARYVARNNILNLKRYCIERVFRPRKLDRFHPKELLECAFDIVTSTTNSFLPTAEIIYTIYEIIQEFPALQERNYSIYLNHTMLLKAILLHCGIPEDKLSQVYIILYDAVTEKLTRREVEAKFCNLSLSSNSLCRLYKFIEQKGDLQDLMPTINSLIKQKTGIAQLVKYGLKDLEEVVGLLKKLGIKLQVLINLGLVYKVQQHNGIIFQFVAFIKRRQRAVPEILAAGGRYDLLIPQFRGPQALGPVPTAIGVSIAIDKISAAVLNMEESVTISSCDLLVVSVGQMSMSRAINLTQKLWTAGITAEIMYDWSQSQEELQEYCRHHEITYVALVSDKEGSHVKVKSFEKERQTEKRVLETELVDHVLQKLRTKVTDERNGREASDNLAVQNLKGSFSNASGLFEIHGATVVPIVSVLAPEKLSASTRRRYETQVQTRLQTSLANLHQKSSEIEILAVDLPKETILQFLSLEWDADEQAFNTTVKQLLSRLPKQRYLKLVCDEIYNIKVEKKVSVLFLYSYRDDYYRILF
Summary of the method: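 U2OS cells adhered overnight, then given compound (top 40 μM, 4-fold serial dilutions) plus 10 μM borrelidin for 1 h at 37 °C. Lysates assayed for eIF2α phospho-Ser51 by AlphaScreen SureFire; % inhibition versus borrelidin-only wells.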

Sequence of GCN2 kinase (Q9P2K8 whole entry): as above

| Structure (SMILES) | IC50 (GCN2 kinase) [nM] | IC50 [1] [nM] | Ki (GCN2 kinase) [nM] |
| --- | --- | --- | --- |
| O=C(c1cnoc1)N1CCN(c2ccnc(-c3cnc4ccc(C(F)(F)F)cn34)n2)CC1c1cn[nH]c1 (stereo not drawn) [I-444, (2-(1H-pyrazol-4-yl)-4-(2-(6-(trifluoromethyl)imidazo[1,2-a]pyridin-3-yl)pyrimidin-4-yl)piperazin-1-yl)(isoxazol-4-yl)methanone] | 10 to 100 | 500 to 5000 |  |
| NC(=O)[C@H]1CCCN(c2ncc(F)c(-c3cnc4ccc(C(F)(F)F)cn34)n2)C1 [I-219, (S)-1-(5-fluoro-4-(6-(trifluoromethyl)imidazo[1,2-a]pyridin-3-yl)pyrimidin-2-yl)piperidine-3-carboxamide] | 10 to 100 | 500 to 5000 |  |
| C[C@H](NS(C)(=O)=O)[C@@H]1[C@H](C)N(c2ccnc(-c3cnc4ccc(C(F)(F)F)cn34)n2)CCN1C1CC1 [I-500, N—((S)-1-((2S,3 S)-1-cyclopropyl-3-methyl-4-(2-(6-(trifluoromethyl)imidazo[1,2-a]pyridin-3-yl)pyrimidin-4-yl)piperazin-2-yl)ethyl)methanesulfonamide] | 100 to 1000 | 500 to 5000 |  |
| CS(=O)(=O)NCC1CCN(c2ccnc(-c3cnc4cc(F)c(Br)cn34)n2)C1 (stereo not drawn) [I-25, N-[[1-[2-(6-Bromo-7-fluoro-imidazo[1,2-a]pyridin-3-yl)pyrimidin-4-yl]pyrrolidin-3-yl]methyl]methanesulfonamide] |  | 500 to 5000 | < 10 |
| C[C@@H]1C[C@H](N=S(C)(C)=O)CN(c2ccnc(-c3cnc4cc(Cl)c(Cl)cn34)n2)C1 [I-269, (((3 S,5R)-1-(2-(6,7-dichloroimidazo[1,2-a]pyridin-3-yl)pyrimidin-4-yl)-5-methylpiperidin-3-yl)imino)dimethyl-λ6-sulfanone] | 10 to 100 | 500 to 5000 |  |
| Cc1[nH]ncc1C1CN(c2ccnc(-c3cnc4ccc(Cl)cn34)n2)CC(C)N1 (stereo not drawn) [I-267, 6-chloro-3-(4-(3-methyl-5-(5-methyl-1H-pyrazol-4-yl)piperazin-1-yl)pyrimidin-2-yl)imidazo[1,2-a]pyridine] | 10 to 100 | 500 to 5000 |  |
| CS(=O)(=O)NC[C@@H]1CN(c2nc(-c3cnc4ccc(C(F)(F)F)cn34)cs2)CCO1 [I-111, (S)—N-((4-(4-(6-(trifluoromethyl)imidazo[1,2-a]pyridin-3-yl)thiazol-2-yl)morpholin-2-yl)methyl)methanesulfonamide] |  | 500 to 5000 | 10 to 100 |
| FC(F)(F)c1ccc2ncc(-c3nsc(N4CCOC(c5cn[nH]c5)C4)n3)n2c1 (stereo not drawn) [I-104, 2-(1H-pyrazol-4-yl)-4-(3-(6-(trifluoromethyl)imidazo[1,2-a]pyridin-3-yl)-1,2,4-thiadiazol-5-yl)morpholine] |  | 500 to 5000 | 10 to 100 |
| NC(=O)C1CN(c2ccnc(-c3cnc4ccc(C(F)(F)F)cn34)n2)CCN1CCC(F)(F)F (stereo not drawn) [I-245, 4-(2-(6-(trifluoromethyl)imidazo[1,2-a]pyridin-3-yl)pyrimidin-4-yl)-1-(3,3,3-trifluoropropyl)piperazine-2-carboxamide] | 10 to 100 | 500 to 5000 |  |
| Clc1ccc2ncc(-c3nccc(N4CCNC(c5cn[nH]c5)C4)n3)n2c1 (stereo not drawn) [I-28, 6-Chloro-3-[4-[3-(1H-pyrazol-4-yl)piperazin-1-yl]pyrimidin-2-yl]imidazo[1,2-a]pyridine] |  | 500 to 5000 | < 10 |
| Fc1cc2ncc(-c3nccc(N4CCCC(c5c[nH]cn5)C4)n3)n2cc1Cl (stereo not drawn) [I-57, 6-Chloro-7-fluoro-3-{4-[3-(1H-imidazol-4-yl)-piperidin-1-yl]-pyrimidin-2-yl}-imidazo[1,2-a]pyridine] |  | 500 to 5000 | 10 to 100 |
| CS(=O)(=O)NC1CC(C(F)(F)F)CN(c2nccc(-c3cnc4ccc(C(F)F)cn34)n2)C1 (stereo not drawn) [I-525, N-(1-(4-(6-(difluoromethyl)imidazo[1,2-a]pyridin-3-yl)pyrimidin-2-yl)-5-(trifluoromethyl)piperidin-3-yl)methanesulfonamide] | 10 to 100 | 500 to 5000 |  |
| Clc1ccc2ncc(-c3nccc(N4CCCC(c5cnoc5)C4)n3)n2c1 (stereo not drawn) [I-65, 6-Chloro-3-[4-(3-isoxazol-4-yl-piperidin-1-yl)-pyrimidin-2-yl]-imidazo[1,2-a]pyridine] |  | 500 to 5000 | 10 to 100 |
| Cc1cnc(N2C[C@@H](C)O[C@@H](c3cn[nH]c3C)C2)nc1-c1cnc2ccc(Cl)cn12 [I-204, (2R,6S)-4-(4-(6-chloroimidazo[1,2-a]pyridin-3-yl)-5-methylpyrimidin-2-yl)-2-methyl-6-(5-methyl-1H-pyrazol-4-yl)morpholine] | 10 to 100 | 500 to 5000 |  |

Next, values leading:

| IC50 (GCN2 kinase) [nM] | IC50 [1] [nM] | Ki (GCN2 kinase) [nM] | Structure (SMILES) |
| --- | --- | --- | --- |
| < 10 | < 500 |  | C[C@@H]1[C@H](c2cn[nH]c2)N(C2COC2)CCN1c1ccnc(-c2cnc3ccc(C(F)(F)F)cn23)n1 [I-362, 4-[(2R,3 S)-2-methyl-4-(oxetan-3-yl)-3-(1H-pyrazol-4-yl)piperazin-1-yl]-2-[6-(trifluoromethyl)imidazo[1,2-a]pyridin-3-yl]pyrimidine] |
| < 10 | < 500 |  | C[C@H]1CN(c2ccnc(-c3cnc4ccc(Cl)cn34)n2)C[C@H](c2cn[nH]c2F)O1 (stereo in doubt) [I-175, (2S,6S)-4-(2-(6-chloroimidazo[1,2-a]pyridin-3-yl)pyrimidin-4-yl)-2-(5-fluoro-1H-pyrazol-4-yl)-6-methylmorpholine] |
| < 10 | < 500 |  | C[C@@H]1C[C@H](c2cn[nH]c2)CN(c2nccc(-c3cnc4ccc(Cl)cn34)n2)C1 [I-196, 6-chloro-3-(2-((3R,5R)-3-methyl-5-(1H-pyrazol-4-yl)piperidin-1-yl)pyrimidin-4-yl)imidazo[1,2-a]pyridine] |
| 100 to 1000 | 500 to 5000 |  | Cc1oncc1[C@H]1CN(c2ccnc(-c3cnc4ccc(C(F)(F)F)cn34)n2)C[C@H](C)O1 [I-345, (2S,6S)-2-methyl-6-(5-methylisoxazol-4-yl)-4-(2-(6-(trifluoromethyl)imidazo[1,2-a]pyridin-3-yl)pyrimidin-4-yl)morpholine] |
| < 10 | < 500 |  | Cc1[nH]ncc1[C@H]1CN(c2nccc(-c3cnc4ccc(Cl)cn34)n2)C[C@@H](C)O1 [I-180, (2R,6S)-4-(4-(6-chloroimidazo[1,2-a]pyridin-3-yl)pyrimidin-2-yl)-2-methyl-6-(5-methyl-1H-pyrazol-4-yl)morpholine] |
| 10 to 100 | < 500 |  | Cc1[nH]ncc1[C@H]1CN(c2ccnc(-c3cnc4ccc(C(F)(F)F)cn34)n2)C[C@H](C)O1 [I-147, (2 S,6 S)-2-methyl-6-(5-methyl-1H-pyrazol-4-yl)-4-(2-(6-(trifluoromethyl)imidazo[1,2-a]pyridin-3-yl)pyrimidin-4-yl)morpholine] |
| < 10 | < 500 |  | FC(F)(F)c1ccc2ncc(-c3nccc(N4CCN(C[C@H]5CC56CCOCC6)[C@@H](c5cn[nH]c5)C4)n3)n2c1 [I-521, 3-(4-((S)-4-(((S)-6-oxaspiro[2.5]octan-1-yl)methyl)-3-(1H-pyrazol-4-yl)piperazin-1-yl)pyrimidin-2-yl)-6-(trifluoromethyl)imidazo[1,2-a]pyridine] |
| 100 to 1000 | < 500 |  | COCCn1cc([C@@H]2C[C@@H](C)CN(c3nccc(-c4cnc5ccc(C(F)(F)F)cn45)n3)C2)cn1 [I-145, 3-(2-((3S,5R)-3-(1-(2-methoxyethyl)-1H-pyrazol-4-yl)-5-methylpiperidin-1-yl)pyrimidin-4-yl)-6-(trifluoromethyl)imidazo[1,2-a]pyridine] |
| 10 to 100 | < 500 |  | FC(F)(F)c1ccc2ncc(-c3nccc(N4CCN(C[C@@H]5CC56CCOCC6)[C@H](c5cn[nH]c5)C4)n3)n2c1 [I-520, 3-(4-((R)-4-(((R)-6-oxaspiro[2.5]octan-1-yl)methyl)-3-(1H-pyrazol-4-yl)piperazin-1-yl)pyrimidin-2-yl)-6-(trifluoromethyl)imidazo[1,2-a]pyridine] |
| < 10 | < 500 |  | Cc1[nH]ncc1[C@H]1CN(c2ccnc(-c3cnc4cc(F)c(Cl)cn34)n2)C[C@@H](C)O1 [I-540, (2R,6S)-4-(2-(6-chloro-7-fluoroimidazo[1,2-a]pyridin-3-yl)pyrimidin-4-yl)-2-methyl-6-(5-methyl-1H-pyrazol-4-yl)morpholine] |
| < 10 | < 500 | < 10 | NC(=O)C1CN(c2ccnc(-c3cnc4ccc(C(F)(F)F)cn34)n2)CC(F)(F)C1 (stereo not drawn) [I-202, 5,5-Difluoro-1-[2-(6-trifluoromethyl-imidazo[1,2-a]pyridin-3-yl)-pyrimidin-4-yl]-piperidine-3-carboxylic acid amide] |
| < 10 | < 500 |  | C[C@@H]1[C@H](c2cn[nH]c2)NCCN1c1ccnc(-c2cnc3ccc(C(F)(F)F)cn23)n1 [I-537, 4-[(2R,3 S)-2-methyl-3-(1H-pyrazol-4-yl)piperazin-1-yl]-2-[6-(trifluoromethyl)imidazo[1,2-a]pyridin-3-yl]pyrimidine] |
| < 10 | < 500 |  | FC(F)(F)c1ccc2ncc(-c3nccc(N4CCN(CC5CC56CCOCC6)C(c5cn[nH]c5)C4)n3)n2c1 (stereo not drawn) [I-476, 4-[4-({6-oxaspiro[2.5]octan-1-yl}methyl)-3-(1H-pyrazol-4-yl)piperazin-1-yl]-2-[6-(trifluoromethyl)imidazo[1,2-a]pyridin-3-yl]pyrimidine] |
| 100 to 1000 | < 500 |  | Cc1nn(C)cc1[C@@H]1CN(c2nccc(-c3cnc4ccc(C(F)(F)F)cn34)n2)C[C@H](C)O1 [I-157, (2R,6S)-2-(1,3-dimethyl-1H-pyrazol-4-yl)-6-methyl-4-(4-(6-(trifluoromethyl)imidazo[1,2-a]pyridin-3-yl)pyrimidin-2-yl)morpholine] |
